Results published in ChEMBL document CHEMBL4765383, “Amphiphilic aminoglycosides with increased selectivity for inhibition of connexin 43 (Cx43) hemichannels” (Eur J Med Chem, 2020).

Columns and labels:
[1] = Selectivity ratio of IC50 for inhibition of human Cx43 to IC50 for inhibition of human Cx26
[2] = molecular target: Gap junction beta-2 protein (Homo sapiens) (UniProt P29033); assay: Inhibition of human Cx26 expressed in kanamycin-resistant Escherichia coli LB2003 cells in medium containing […] K+ and 500 uM IPTG by measuring cell growth at 15 uM after 18 hrs by growth complementation assay; set-up: scale not given: the % may be the effect or the level left
[3] = molecular target: Gap junction beta-2 protein (Homo sapiens) (UniProt P29033); assay: Inhibition of human Cx26 expressed in kanamycin-resistant Escherichia coli LB2003 cells in medium containing […] K+ and 500 uM IPTG by measuring cell growth at 50 uM after 18 hrs by growth complementation assay; set-up: scale not given: the % may be the effect or the level left
[4] = molecular target: Gap junction alpha-1 protein (Homo sapiens) (UniProt P17302); assay: Inhibition of human Cx43 expressed in kanamycin-resistant Escherichia coli LB2003 cells in medium containing […] K+ and 10 uM IPTG by measuring cell growth at 50 uM after 18 hrs by growth complementation assay; set-up: scale not given: the % may be the effect or the level left
Gap junction alpha-1 protein (Homo sapiens), sequence (P17302 whole entry): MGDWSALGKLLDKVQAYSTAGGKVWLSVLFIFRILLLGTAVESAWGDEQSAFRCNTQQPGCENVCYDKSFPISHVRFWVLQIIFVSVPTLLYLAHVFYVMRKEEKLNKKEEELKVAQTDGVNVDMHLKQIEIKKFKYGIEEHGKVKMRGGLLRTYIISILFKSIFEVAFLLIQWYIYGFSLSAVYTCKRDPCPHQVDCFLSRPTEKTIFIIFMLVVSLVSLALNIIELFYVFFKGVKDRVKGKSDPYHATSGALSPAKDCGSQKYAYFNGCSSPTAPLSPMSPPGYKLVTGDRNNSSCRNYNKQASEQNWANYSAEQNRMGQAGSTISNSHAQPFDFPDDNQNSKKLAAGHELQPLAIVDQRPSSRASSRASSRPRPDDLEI

[5] = molecular target: Gap junction alpha-1 protein (Homo sapiens) (UniProt P17302); assay: Inhibition of human Cx43 expressed in kanamycin-resistant Escherichia coli LB2003 cells in medium containing […] K+ and 10 uM IPTG by measuring cell growth at 15 uM after 18 hrs by growth complementation assay; set-up: scale not given: the % may be the effect or the level left

| SMILES | Selectivity ratio [1] | Activity [2] | Activity [3] | Activity [4] | Activity [5] |
| --- | --- | --- | --- | --- | --- |
| NC[C@H]1O[C@H](O[C@H]2[C@H](O)[C@@H](O[C@H]3O[C@H](COCc4ccc(Cl)cc4)[C@@H](OCc4ccc(Cl)cc4)[C@H](N)[C@H]3O)[C@H](N)C[C@@H]2N)[C@H](O)[C@@H](O)[C@@H]1O | 0.15 |  |  |  |  |
| CCCCCCCC(=O)NC[C@H]1O[C@H](O[C@H]2[C@H](O)[C@@H](O[C@H]3O[C@H](CO)[C@@H](O)[C@H](N)[C@H]3O)[C@H](N)C[C@@H]2N)[C@H](O)[C@@H](O)[C@@H]1O |  | 14% | 25.2% | 37.2% | 17% |
| COc1ccc2cc(C(=O)NC[C@H]3O[C@H](O[C@H]4[C@H](O)[C@@H](O[C@H]5O[C@H](CO)[C@@H](O)[C@H](N)[C@H]5O)[C@H](N)C[C@@H]4N)[C@H](O)[C@@H](O)[C@@H]3O)ccc2c1 |  | 15.1% | 27.9% | 45.1% | 42.1% |
| NC[C@H]1O[C@H](O[C@H]2[C@H](O)[C@@H](O[C@H]3O[C@H](COCc4ccc5ccccc5c4)[C@@H](OCc4ccc5ccccc5c4)[C@H](N)[C@H]3O)[C@H](N)C[C@@H]2N)[C@H](O)[C@@H](O)[C@@H]1O | 1.07 |  |  |  |  |
| N[C@@H]1[C@@H](O)[C@@H](O[C@@H]2[C@@H](O)[C@H](O[C@H]3O[C@H](CNC(=O)c4ccccc4-c4c5ccc(=O)cc-5oc5cc(O)ccc45)[C@@H](O)[C@H](O)[C@H]3O)[C@@H](N)C[C@H]2N)O[C@H](CO)[C@H]1O | 1.42 | 22.3% | 79.6% | 83.4% | 56.8% |
| CCCCCCCCCC(=O)NC[C@H]1O[C@H](O[C@H]2[C@H](O)[C@@H](O[C@H]3O[C@H](CO)[C@@H](O)[C@H](N)[C@H]3O)[C@H](N)C[C@@H]2N)[C@H](O)[C@@H](O)[C@@H]1O |  | 16.1% | 33.6% | 53.5% | 44.4% |
| N[C@@H]1[C@@H](O)[C@@H](O[C@@H]2[C@@H](O)[C@H](O[C@H]3O[C@H](CNC(=O)CCCc4cc5ccc6cccc7ccc(c4)c5c67)[C@@H](O)[C@H](O)[C@H]3O)[C@@H](N)C[C@H]2N)O[C@H](CO)[C@H]1O | 2.16 | 36.9% | 79.2% | 69.6% | 52.2% |
| N[C@@H]1[C@@H](O)[C@@H](O[C@@H]2[C@@H](O)[C@H](O[C@H]3O[C@H](CNC(=O)c4ccc5cc(O)ccc5c4)[C@@H](O)[C@H](O)[C@H]3O)[C@@H](N)C[C@H]2N)O[C@H](CO)[C@H]1O |  | 4.7% | 32.8% | 37.1% | 34.1% |
| NC[C@H]1O[C@H](O[C@H]2[C@H](O)[C@@H](O[C@H]3O[C@H](CNC(=O)c4ccccc4-c4c5ccc(=O)cc-5oc5cc(O)ccc45)[C@@H](O)[C@H](N)[C@H]3O)[C@H](N)C[C@@H]2N)[C@H](O)[C@@H](O)[C@@H]1O |  | 37.1% | 81% | 55.1% | 45.3% |
| CCCCCCCCCCCC(=O)NC[C@H]1O[C@H](O[C@H]2[C@H](O)[C@@H](O[C@H]3O[C@H](CO)[C@@H](O)[C@H](N)[C@H]3O)[C@H](N)C[C@@H]2N)[C@H](O)[C@@H](O)[C@@H]1O | 6.88 | 16.4% | 56.2% | 70.9% | 53.6% |
| CCCCCCC(=O)NC[C@H]1O[C@H](O[C@H]2[C@H](O)[C@@H](O[C@H]3O[C@H](CO)[C@@H](O)[C@H](N)[C@H]3O)[C@H](N)C[C@@H]2N)[C@H](O)[C@@H](O)[C@@H]1O |  | 22.5% | 34.3% | 36% | 18.5% |

Further lines, results first:

| Selectivity ratio [1] | Activity [2] | Activity [3] | Activity [4] | Activity [5] | SMILES |
| --- | --- | --- | --- | --- | --- |
| 7.97 | 19.3% | 28.2% | 76.8% | 63.8% | Cc1ccc(OC[C@H]2O[C@H](O[C@@H]3[C@@H](O)[C@H](O[C@H]4O[C@H](CN)[C@@H](O)[C@H](O)[C@H]4O)[C@@H](N)C[C@H]3N)[C@H](O)[C@@H](N)[C@@H]2O)cc1 |
|  | 26.8% | 49.2% | 51% | 38.1% | Cc1ccc(S(=O)(=O)OC[C@H]2O[C@H](O[C@@H]3[C@@H](O)[C@H](O[C@H]4O[C@H](CN)[C@@H](O)[C@H](O)[C@H]4O)[C@@H](N)C[C@H]3N)[C@H](O)[C@@H](N)[C@@H]2O)cc1 |
|  | 8% | 22.8% | 51% | 25.5% | N[C@@H]1[C@@H](O)[C@@H](O[C@@H]2[C@@H](O)[C@H](O[C@H]3O[C@H](CNC(=O)c4cc(-c5ccccc5)nc5ccccc45)[C@@H](O)[C@H](O)[C@H]3O)[C@@H](N)C[C@H]2N)O[C@H](CO)[C@H]1O |
| 0.3 |  |  |  |  | NC[C@H]1O[C@H](O[C@H]2[C@H](O)[C@@H](O[C@H]3O[C@H](COCc4ccc(F)cc4)[C@@H](OCc4ccc(F)cc4)[C@H](N)[C@H]3O)[C@H](N)C[C@@H]2N)[C@H](O)[C@@H](O)[C@@H]1O |
|  | 46.3% | 67.8% | 54.3% | 27.3% | NC[C@H]1O[C@H](O[C@H]2[C@H](O)[C@@H](O[C@H]3O[C@H](COc4ccc(-c5ccccc5)cc4)[C@@H](O)[C@H](N)[C@H]3O)[C@H](N)C[C@@H]2N)[C@H](O)[C@@H](O)[C@@H]1O |
| 0.34 | 83.1% | 85.5% | 71.7% | 43.2% | NC[C@H]1O[C@H](O[C@H]2[C@H](O)[C@@H](O[C@H]3O[C@H](COc4ccc(-c5nc6ccccc6[nH]5)cc4)[C@@H](O)[C@H](N)[C@H]3O)[C@H](N)C[C@@H]2N)[C@H](O)[C@@H](O)[C@@H]1O |
| 1.93 | 44.4% | 69.5% | 68.3% | 50.3% | NC[C@H]1O[C@H](O[C@H]2[C@H](O)[C@@H](O[C@H]3O[C@H](COc4ccc(Cl)cc4)[C@@H](O)[C@H](N)[C@H]3O)[C@H](N)C[C@@H]2N)[C@H](O)[C@@H](O)[C@@H]1O |
|  | 15.9% | 36.5% | 34.8% | 20% | COc1ccc(OC[C@H]2O[C@H](O[C@@H]3[C@@H](O)[C@H](O[C@H]4O[C@H](CN)[C@@H](O)[C@H](O)[C@H]4O)[C@@H](N)C[C@H]3N)[C@H](O)[C@@H](N)[C@@H]2O)cc1 |
| 3.17 |  |  |  |  | COc1ccc(COC[C@H]2O[C@H](O[C@@H]3[C@@H](O)[C@H](O[C@H]4O[C@H](CN)[C@@H](O)[C@H](O)[C@H]4O)[C@@H](N)C[C@H]3N)[C@H](O)[C@@H](N)[C@@H]2OCc2ccc(OC)cc2)cc1 |
| 1.39 |  |  |  |  | Cc1ccc(COC[C@H]2O[C@H](O[C@@H]3[C@@H](O)[C@H](O[C@H]4O[C@H](CN)[C@@H](O)[C@H](O)[C@H]4O)[C@@H](N)C[C@H]3N)[C@H](O)[C@@H](N)[C@@H]2OCc2ccc(C)cc2)cc1 |
| 1.23 |  |  |  |  | NC[C@H]1O[C@H](O[C@H]2[C@H](O)[C@@H](O[C@H]3O[C@H](COCc4cccc(-c5ccccc5)c4)[C@@H](OCc4cccc(-c5ccccc5)c4)[C@H](N)[C@H]3O)[C@H](N)C[C@@H]2N)[C@H](O)[C@@H](O)[C@@H]1O |
|  | 14.6% | 69.4% | 46.7% | 36% | NC[C@H]1O[C@H](O[C@H]2[C@H](O)[C@@H](O[C@H]3O[C@H](COc4ccccc4)[C@@H](O)[C@H](N)[C@H]3O)[C@H](N)C[C@@H]2N)[C@H](O)[C@@H](O)[C@@H]1O |
|  | 35.9% | 62.6% | 49.3% | 36.5% | NC[C@H]1O[C@H](O[C@H]2[C@H](O)[C@@H](O[C@H]3O[C@H](COc4ccc([N+](=O)[O-])cc4)[C@@H](O)[C@H](N)[C@H]3O)[C@H](N)C[C@@H]2N)[C@H](O)[C@@H](O)[C@@H]1O |
